Data taken from the supplement of paper PMC11451515.

Experiments:
[1] = system: SEM cells; experiment: AUC of viability dose-response curve (% viability x log10 dose units); higher = less sensitive; settings: 48 h
Procedure, shortened: (§1)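 In 1536-well plates, leukemia cells adapted to each medium (500 or 1000 cells/well) were exposed for 48 h at 37°C to library compounds in DMSO across 11 threefold doses, 47 μM down to 0.79 nM. Viability was read by CellTiter-Glo One luminescence and normalised per plate to DMSO and cell-free wells. A four-parameter log-logistic fit over log10 doses was integrated by trapezoidal rule. This yielded the area under the curve, with over-full-viability curves scaled and quality-control failures dropped.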

[2] = system: P12-Ichikawa; experiment: as above; settings: 48 h
Procedure, shortened: as §1

[3] = system: NOMO1; experiment: as above; settings: 48 h
Procedure, shortened: as §1

[4] = system: SEM cells; experiment: cell viability relative to DMSO control; higher = less cytotoxic; settings: 48 h
Procedure, shortened: (§2)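 Library compounds in DMSO were pin-dosed in an 11-point threefold series (47 μM to 0.79 nM) onto leukemia cells in 1536-well plates (5 μl). Plates held 500 cells/well of NOMO1 or SEM or 1000 cells/well of P12-Ichikawa, each adapted for at least four passages in each medium. Luminescence was read with CellTiter-Glo One after 48 h at 37°C. Viability means the per-plate percentage relative to DMSO wells, using cell-free wells as background.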

[5] = system: P12-Ichikawa; experiment: as above; settings: 48 h
Procedure, shortened: as §2

[6] = system: NOMO1; experiment: as above; settings: RPMI 5 mM glucose + 10% FBS, 48 h
Procedure, shortened: as §2

Cn1c(CCCC(=O)O)nc2cc(N(CCCl)CCCl)ccc21
AUC of viability dose-response curve
Settings	[1]	[2]	[3]
HPLM + 10% dialyzed FBS	456	438	452
RPMI 5 mM glucose + 10% FBS	414	457	441
RPMI 5 mM glucose + 10% dialyzed FBS	447	451	453

COc1ccc(Cn2ccc3ccc(C(=O)NO)cc32)cc1
cell viability [%]
Settings	HPLM + 10% dialyzed FBS	RPMI 5 mM glucose + 10% FBS	RPMI 5 mM glucose + 10% dialyzed FBS
[4], 0.000781 µM	102	103	99.6
[4], 0.00234 µM	107	115	110
[4], 0.00702 µM	120	122	115
[4], 0.0211 µM	120	98.1	76.3
[4], 0.0632 µM	123	109	114
[4], 0.19 µM	113	129	118
[4], 0.569 µM	127	127	112
[4], 1.71 µM	118	127	110
[4], 5.12 µM	112	109	112
[4], 15.4 µM	114	109	111
[4], 46.1 µM	58.5	49.3	38.5
[5], 0.000781 µM	116	108	116
[5], 0.00234 µM	121	114	116
[5], 0.00702 µM	119	120	116
[5], 0.0211 µM	87.4	65.3	79.9
[5], 0.0632 µM	128	134	126
[5], 0.19 µM	123	125	126
[5], 0.569 µM	120	130	129
[5], 1.71 µM	119	120	119
[5], 5.12 µM	113	120	114
[5], 15.4 µM	90.3	83.5	87
[5], 46.1 µM	44	52.3	55.6

Settings	AUC of viability dose-response curve	cell viability [%]
[1], HPLM + 10% dialyzed FBS	464	–
[1], RPMI 5 mM glucose + 10% FBS	460	–
[1], RPMI 5 mM glucose + 10% dialyzed FBS	462	–
[3], HPLM + 10% dialyzed FBS	446	–
[3], RPMI 5 mM glucose + 10% FBS	461	–
[3], RPMI 5 mM glucose + 10% dialyzed FBS	469	–
[6], 0.000781 µM	–	107
[6], 0.00234 µM	–	121
[6], 0.00702 µM	–	115
[6], 0.0211 µM	–	128
[6], 0.0632 µM	–	124
[6], 0.19 µM	–	123
[6], 0.569 µM	–	130
[6], 1.71 µM	–	137
[6], 5.12 µM	–	124
[6], 15.4 µM	–	130
[6], 46.1 µM	–	128
